The values that follow come from US20230365553A1, “COMPOUNDS AND COMPOSITIONS FOR TREATING CONDITIONS ASSOCIATED WITH STING ACTIVITY” (IFM Due, Inc., priority 2020, published 2023).

The term EC50 denotes the concentration at which the effect is half-maximal.

For this assay, the target named is T1, STING (Homo sapiens, UniProt Q86WV6, G230A/H232R/R293Q/R71H).
T1 construct: host or cells: THP1-Dual KO-IFNAR2 cells
The experiment in a line: STING reporter assay: luciferase reporter activity in THP1-Dual KO-IFNAR2 cells stimulated with 2′3′cGAMP. It is filed as cell-based. The settings on record: 15 μM 2′3′cGAMP, 24h, read-out: hSTING EC50. A digest of the protocol: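 THP1-Dual KO-IFNAR2 cells (2×10E6 cells/mL) were exposed to compounds at 0.0017-100 μM, then stimulated with 2′3′cGAMP (15 μM final) transfected via Lipofectamine 2000. After 24h at 37° C., secreted luciferase in supernatant was read by QUANTI-Luc luminescence; EC50 derived from concentration-response.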
In general terms: Reporter assays use an easily measured gene product as a stand-in for the process of interest.

T1 sequence (Q86WV6 whole entry R71H/G230A/H232R/R293Q): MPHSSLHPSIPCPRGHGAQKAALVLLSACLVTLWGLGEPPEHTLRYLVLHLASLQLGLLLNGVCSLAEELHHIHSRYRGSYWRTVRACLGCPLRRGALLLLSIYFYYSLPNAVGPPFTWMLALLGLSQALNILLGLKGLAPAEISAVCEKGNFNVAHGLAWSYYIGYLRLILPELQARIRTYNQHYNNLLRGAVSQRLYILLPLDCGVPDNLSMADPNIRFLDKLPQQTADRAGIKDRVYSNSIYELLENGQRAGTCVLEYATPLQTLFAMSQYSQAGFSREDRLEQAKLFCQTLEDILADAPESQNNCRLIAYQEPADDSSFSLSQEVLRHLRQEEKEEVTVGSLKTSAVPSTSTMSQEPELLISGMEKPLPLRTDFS

Consider `CC(c1cccc(C(F)(F)F)c1)n1cc(-c2ccc3[nH]cc(NC(=O)C4CCC4)c3c2)cn1` (stereo not shown) [Compound 257, N-(5-(1-(1-(3-(trifluoromethyl)phenyl)ethyl)-1H-pyrazol-4-yl)-1H-indol-3-yl)cyclobutanecarboxamide], for which the EC50 was 0.2 to 1 µM.

With `O=C(Nc1c[nH]c2ccc(-c3cnn(Cc4ccc(C(F)(F)F)cc4)c3)cc12)C1CCC1` [Compound 258, N-(5-(1-(4-(trifluoromethyl)benzyl)-1H-pyrazol-4-yl)-1H-indol-3-yl)cyclobutanecarboxamide], the EC50 lay within 0.04 to 0.2 µM.

For `O=C(Nc1c[nH]c2ccc(-c3cnn(-c4ccc(C5CC(F)(F)C5)cc4)c3)cc12)C1CCC1` [Compound 259, N-(5-(1-(4-(3,3-difluorocyclobutyl)phenyl)-1H-pyrazol-4-yl)-1H-indol-3-yl)cyclobutanecarboxamide], the half-maximal effective concentration (EC50) lay in the range of 0.2 to 1 µM.

Turning to `O=C(Nc1c[nH]c2ccc(-c3cnn(-c4ccc(C(F)(F)F)cc4)c3)cc12)c1ncc[nH]1` [Compound 260, N-(5-(1-(4-(trifluoromethyl)phenyl)-1H-pyrazol-4-yl)-1H-indol-3-yl)-1H-imidazole-2-carboxamide], the EC50 lay within 5 to 100 µM. The figure for `O=C(Nc1c[nH]c2ccc(-c3cnn(-c4ccc(C(F)(F)F)cc4)c3)cc12)c1cnn[nH]1` [Compound 261, N-(5-(1-(4-(trifluoromethyl)phenyl)-1H-pyrazol-4-yl)-1H-indol-3-yl)-1H-1,2,3-triazole-5-carboxamide] is 1 to 5 µM; for `O=C(Nc1c[nH]c2ccc(-c3cnn(-c4ccc(C(F)(F)F)cc4)c3)cc12)c1ccno1` [Compound 262, N-(5-(1-(4-(trifluoromethyl)phenyl)-1H-pyrazol-4-yl)-1H-indol-3-yl)isoxazole-5-carboxamide] it is 0.2 to 1 µM; for `O=C(Nc1c[nH]c2ccc(-c3cnn(-c4ccc(C(F)(F)F)cc4)c3)cc12)c1cnco1` [Compound 263, N-(5-(1-(4-(trifluoromethyl)phenyl)-1H-pyrazol-4-yl)-1H-indol-3-yl)oxazole-5-carboxamide] it is 0.2 to 1 µM.

Consider `N#Cc1cc(C(=O)Nc2c[nH]c3ccc(-c4cnn(-c5ccc(C(F)(F)F)cc5)c4)cc23)n[nH]1` [Compound 264, 5-cyano-N-(5-(1-(4-(trifluoromethyl)phenyl)-1H-pyrazol-4-yl)-1H-indol-3-yl)-1H-pyrazole-3-carboxamide], for which the 50% effective concentration (EC50) fell in the range of 1 to 5 µM. On to `O=C(Nc1c[nH]c2ccc(-c3cnn(-c4ccc(C(F)(F)F)cc4)c3)cc12)c1ccn[nH]1` [Compound 265, N-(5-(1-(4-(trifluoromethyl)phenyl)-1H-pyrazol-4-yl)-1H-indol-3-yl)-1H-pyrazole-5-carboxamide], for which the EC50 was in the range of 0.2 to 1 µM. Consider `O=C(Nc1c[nH]c2ccc(-c3cnn(-c4ccc(C(F)(F)F)cc4)c3)cc12)c1cn[nH]c1` [Compound 266, N-(5-(1-(4-(trifluoromethyl)phenyl)-1H-pyrazol-4-yl)-1H-indol-3-yl)-1H-pyrazole-4-carboxamide], for which the half-maximal effective concentration (EC50) is 0.2 to 1 µM.

For the compound `O=C(Nc1c[nH]c2ccc(-c3cnn(-c4ccc(C(F)(F)F)cc4)c3)cc12)c1cocn1` [Compound 267, N-(5-(1-(4-(trifluoromethyl)phenyl)-1H-pyrazol-4-yl)-1H-indol-3-yl)oxazole-4-carboxamide], the EC50 was in the range of 0.2 to 1 µM. `O=C(Nc1c[nH]c2ccc(-c3cnn(-c4ccc(C(F)(F)F)cc4)c3)cc12)c1cncs1` [Compound 268, N-(5-(1-(4-(trifluoromethyl)phenyl)-1H-pyrazol-4-yl)-1H-indol-3-yl)thiazole-5-carboxamide]: the concentration for a half-maximal effect (EC50) fell in the range of 0.2 to 1 µM. On to `Cn1ccnc1C(=O)Nc1c[nH]c2ccc(-c3cnn(-c4ccc(C(F)(F)F)cc4)c3)cc12` [Compound 269, 1-methyl-N-(5-(1-(4-(trifluoromethyl)phenyl)-1H-pyrazol-4-yl)-1H-indol-3-yl)-1H-imidazole-2-carboxamide], for which the EC50 fell in the range of 1 to 5 µM.

`Cc1nc(C(=O)Nc2c[nH]c3ccc(-c4cnn(-c5ccc(C(F)(F)F)cc5)c4)cc23)co1` [Compound 270, 2-methyl-N-(5-(1-(4-(trifluoromethyl)phenyl)-1H-pyrazol-4-yl)-1H-indol-3-yl)oxazole-4-carboxamide]: the EC50 was in the range of 0.2 to 1 µM. Regarding `Cc1cc(C(=O)Nc2c[nH]c3ccc(-c4cnn(-c5ccc(C(F)(F)F)cc5)c4)cc23)on1` [Compound 271, 3-methyl-N-(5-(1-(4-(trifluoromethyl)phenyl)-1H-pyrazol-4-yl)-1H-indol-3-yl)isoxazole-5-carboxamide], the EC50 lay in the range of 0.2 to 1 µM. `O=C(Nc1c[nH]c2ccc(-c3cnn(-c4ccc(C(F)(F)F)cc4)c3)cc12)c1ncco1` [Compound 272, N-(5-(1-(4-(trifluoromethyl)phenyl)-1H-pyrazol-4-yl)-1H-indol-3-yl)oxazole-2-carboxamide]: the half-maximal effective concentration (EC50) was 1 to 5 µM.

For `O=C(Nc1c[nH]c2ccc(-c3cnn(-c4ccc(C(F)(F)F)cc4)c3)cc12)c1nccs1` [Compound 273, N-(5-(1-(4-(trifluoromethyl)phenyl)-1H-pyrazol-4-yl)-1H-indol-3-yl)thiazole-2-carboxamide], the EC50 lay in the range of 1 to 5 µM.

`Cc1cc(C(=O)Nc2c[nH]c3ccc(-c4cnn(-c5ccc(C(F)(F)F)cc5)c4)cc23)no1` [Compound 274, 5-methyl-N-(5-(1-(4-(trifluoromethyl)phenyl)-1H-pyrazol-4-yl)-1H-indol-3-yl)isoxazole-3-carboxamide]: the concentration for a half-maximal effect (EC50) is 0.2 to 1 µM. For `O=C(Nc1c[nH]c2ccc(-c3cnn(-c4ccc(C(F)(F)F)cc4)c3)cc12)c1cscn1` [Compound 275, N-(5-(1-(4-(trifluoromethyl)phenyl)-1H-pyrazol-4-yl)-1H-indol-3-yl)thiazole-4-carboxamide], the 50% effective concentration (EC50) is 1 to 5 µM. In the case of `Cn1ccc(C(=O)Nc2c[nH]c3ccc(-c4cnn(-c5ccc(C(F)(F)F)cc5)c4)cc23)n1` [Compound 276, 1-methyl-N-(5-(1-(4-(trifluoromethyl)phenyl)-1H-pyrazol-4-yl)-1H-indol-3-yl)-1H-pyrazole-3-carboxamide], the EC50 fell in the range of 0.2 to 1 µM. As for `O=C(Nc1c[nH]c2ccc(-c3cnn(-c4ccc(C(F)(F)F)cc4)c3)cc12)c1cnoc1` [Compound 277, N-(5-(1-(4-(trifluoromethyl)phenyl)-1H-pyrazol-4-yl)-1H-indol-3-yl)isoxazole-4-carboxamide], the half-maximal effective concentration (EC50) lay in the range of 5 to 100 µM. For `Cn1cc(C(=O)Nc2c[nH]c3ccc(-c4cnn(-c5ccc(C(F)(F)F)cc5)c4)cc23)cn1` [Compound 278, 1-methyl-N-(5-(1-(4-(trifluoromethyl)phenyl)-1H-pyrazol-4-yl)-1H-indol-3-yl)-1H-pyrazole-4-carboxamide], the EC50 lay in the range of 0.2 to 1 µM. The result for `Cn1cc(C(=O)Nc2c[nH]c3ccc(-c4cnn(-c5ccc(C(F)(F)F)cc5)c4)cc23)nn1` [Compound 279, 1-methyl-N-(5-(1-(4-(trifluoromethyl)phenyl)-1H-pyrazol-4-yl)-1H-indol-3-yl)-1H-1,2,3-triazole-4-carboxamide] reads 0.2 to 1 µM. For `O=C(Nc1c[nH]c2ccc(-c3cnn(-c4ccc(C(F)(F)F)cc4)c3)cc12)c1ccon1` [Compound 280, N-(5-(1-(4-(trifluoromethyl)phenyl)-1H-pyrazol-4-yl)-1H-indol-3-yl)isoxazole-3-carboxamide], the EC50 was in the range of 0.2 to 1 µM.

As to `Cn1cnc(C(=O)Nc2c[nH]c3ccc(-c4cnn(-c5ccc(C(F)(F)F)cc5)c4)cc23)c1` [Compound 281, 1-methyl-N-(5-(1-(4-(trifluoromethyl)phenyl)-1H-pyrazol-4-yl)-1H-indol-3-yl)-1H-imidazole-4-carboxamide], the EC50 was 1 to 5 µM. Turning to `O=C(Nc1c[nH]c2ccc(-c3cnn(-c4ccc(C(F)(F)F)cc4)c3)cc12)c1ccc(=O)[nH]n1` [Compound 282, 6-oxo-N-(5-(1-(4-(trifluoromethyl)phenyl)-1H-pyrazol-4-yl)-1H-indol-3-yl)-1,6-dihydropyridazine-3-carboxamide], the half-maximal effective concentration (EC50) was in the range of 1 to 5 µM. Regarding `CC(C)n1cc(C(=O)Nc2c[nH]c3ccc(-c4cnn(-c5ccc(C(F)(F)F)cc5)c4)cc23)nn1` [Compound 283, 1-isopropyl-N-(5-(1-(4-(trifluoromethyl)phenyl)-1H-pyrazol-4-yl)-1H-indol-3-yl)-1H-1,2,3-triazole-4-carboxamide], the concentration for a half-maximal effect (EC50) lay within 0.2 to 1 µM. With `O=C(Nc1c[nH]c2ccc(-c3cnn(-c4ccc(C(F)(F)F)cc4)c3)cc12)[C@@H]1CC(F)(F)CN1` [compound 184, (S)-4,4-difluoro-N-(5-(1-(4-(trifluoromethyl)phenyl)-1H-pyrazol-4-yl)-1H-indol-3-yl)pyrrolidine-2-carboxamide], the EC50 was in the range of 5 to 100 µM.
